One may read the ED50 as the dose at which the effect has come halfway, by size or by number of responders. What is called pKa is the negative logarithm of the acid dissociation constant. Read a low pKa as a stronger acid or weaker base. The term logP denotes the decadic logarithm of the partition coefficient of the neutral form, usually between octanol and water. The low end stands for lower lipophilicity, the high end for higher lipophilicity.

Structures are written as SMILES.

The text below walks through data of ChEMBL document CHEMBL1121604, “Cerebrovasodilatation through selective inhibition of the enzyme carbonic anhydrase. 2. Imidazo[2,1-b]thiadiazole and imidazo[2,1-b]thiazolesulfonamides” (J Med Chem, 1980).

For series [1], the system named is Mus musculus. The series can be described thus: Protective dose against maximal electroshock in mice after peroral administration. Particulars: po. Format: functional. A general note: The maximal electroshock test induces tonic seizures with an electrical stimulus.
Series [2] is filed under the species Mus musculus. The series is described as follows: Anticonvulsant potency in mice relative to compound UK-12130 (ED50 of compound 24/compound). Format: functional.
The nature of series [3]: pKa of the compound was determined. Format: physicochemical.
Series [4] in a line: Partition coefficient (logP). Format: physicochemical. The following applies: octanol/water.

On to `NS(=O)(=O)c1nn2cc(-c3ccccc3)nc2s1`, for which the median effective dose (ED50) with Mus musculus [1] stood at 16 mg/kg. Besides, in the series listed under Mus musculus [2], the Potency ratio stood at 0.6. The pKa in series [3] was found to be 7.12.
The compound `NS(=O)(=O)c1nn2c(-c3ccccc3)cnc2s1` registered an ED50 with Mus musculus [1] above 16 mg/kg. In addition, the Potency ratio in the series listed under Mus musculus [2] was found to be 0.4.
In the case of `CC(C)(C)c1cn2nc(S(N)(=O)=O)sc2n1`, it took a dose of 2.6 mg/kg to reach the 50% effect level in the series with Mus musculus [1] (ED50). The Potency ratio in the series listed under Mus musculus [2] amounted to 3.2. This compound showed a pKa in series [3] of 6.94.
With `COc1ccc(-c2cn3nc(S(N)(=O)=O)sc3n2)cc1`, in the series on Mus musculus [1], the ED50 was above 16 mg/kg. Also, the Potency ratio in the series filed under Mus musculus [2] is given as below 0.6.
For `CC(=O)Nc1ccc(-c2cn3nc(S(N)(=O)=O)sc3n2)cc1` the same measures were above 16 mg/kg and below 0.4.
`NS(=O)(=O)c1nn2cc(-c3ccc(O)cc3)nc2s1` had an ED50 in the series with Mus musculus [1] of 10 mg/kg. Moreover, the Potency ratio in the series listed under Mus musculus [2] amounted to 0.9. For the same compound, in series [3], the pKa came to 8.16.
On to `NS(=O)(=O)c1nn2cc(-c3ccccc3O)nc2s1`, for which, in the series on Mus musculus [1], the ED50 was above 16 mg/kg. For the same compound, the Potency ratio in the series filed under Mus musculus [2] is below 0.6.
Consider `CC(C)(C)c1cn2cc(S(N)(=O)=O)sc2n1`, for which the median effective dose (ED50) in the series with Mus musculus [1] was 7 mg/kg. Moreover, the Potency ratio in the series listed under Mus musculus [2] was found to be 1.7. In series [3], the pKa was 8.37.
For `Cc1ccc(-c2cn3nc(S(N)(=O)=O)sc3n2)cc1`, in the series with Mus musculus [1], the median effective dose (ED50) was above 16 mg/kg. The Potency ratio in the series filed under Mus musculus [2] is below 0.6.
Regarding `NS(=O)(=O)c1nn2cc(-c3cccs3)nc2s1`, in the series on Mus musculus [1], the ED50 is above 16 mg/kg. Besides, in the series listed under Mus musculus [2], the Potency ratio is recorded as below 0.4.
For `Br.Cc1cn2nc(S(N)(=O)=O)sc2n1` the same measures were 5 mg/kg and 2.2.
`Br.CCc1nc2sc(S(N)(=O)=O)nn2c1C` returned an ED50 with Mus musculus [1] of 8 mg/kg. For the same compound, the Potency ratio in the series filed under Mus musculus [2] is reported as 1.
Consider `Br.NS(=O)(=O)c1cn2ccnc2s1`, for which the ED50 with Mus musculus [1] turned out to be 16 mg/kg. Moreover, the Potency ratio in the series listed under Mus musculus [2] was found to be 0.7.
For `Br.NS(=O)(=O)C1=NN2C(=NC3CCCCC32)S1` (configuration not stated) the same measures were above 16 mg/kg and below 0.5.
For `Br.NS(=O)(=O)c1nn2ccnc2s1` the same measures were 8 mg/kg and 1.4.
For `Br.CCc1cn2nc(S(N)(=O)=O)sc2n1` the same measures were 5 mg/kg and 1.6.
On to `Br.Cc1cn2cc(S(N)(=O)=O)sc2n1`, for which the ED50 with Mus musculus [1] was 6 mg/kg. Further, the Potency ratio in the series filed under Mus musculus [2] is on record as 1.3.
For `Br.Cc1nc2sc(S(N)(=O)=O)nn2c1C` the same measures were 12 mg/kg and 0.6.
Regarding `Br.NS(=O)(=O)c1nn2cc(C34CC5CC(CC(C5)C3)C4)nc2s1`, the ED50 with Mus musculus [1] amounted to 6 mg/kg. Also, the Potency ratio in the series filed under Mus musculus [2] came out at 1.
As to `CC(=O)Nc1nnc(S(N)(=O)=O)s1` [ACETAZOLAMIDE], the 50% effective dose (ED50) in the series with Mus musculus [1] amounted to 36 mg/kg.
Turning to `CC(=O)/N=c1/sc(S(N)(=O)=O)nn1C` [METHAZOLAMIDE], the median effective dose (ED50) in the series on Mus musculus [1] was 12 mg/kg. In the series listed under Mus musculus [2], the Potency ratio is given as 0.75. In series [4], this compound returned a log partition coefficient (logP) of 0.2. In series [3], this compound came in with a pKa of 7.2.
